Here are results for 31 compounds from patent publication US10005792B2, “Aminoindane-, aminotetrahydronaphthalene- and aminobenzocyclobutane-derived PRMT5-inhibitors” (CTXT PTY LTD, priority 2014, dated 2018).

Where a name gives a salt, the structure may show the parent alone.

The target of one assay is T1, Full-length PRMT5 enzyme co-expressed with MEP50 (Homo sapiens (Human), UniProt O14744). Put plainly: PRMT5 Biochemical Assay. As to conditions: 200 nM histone H4 derived peptide substrate, 1 μM S-Adenosyl methionine, 4 hours at 37° C, Transcreener EPIGEN fluorescence polarisation. The method, then: Compounds of the invention may be tested for in vitro activity in the following assay: A histone H4 derived peptide is used as substrate (amino acid sequence: […]NH2). Full-length PRMT5 enzyme (NCBI Reference sequence NP-006100.2) was co-expressed with Hiss-MEP50 in insect cells and purified via Nickel immobilized metal affinity and gel filtration chromatography (“the enzyme”).
T1 sequence (O14744 whole entry): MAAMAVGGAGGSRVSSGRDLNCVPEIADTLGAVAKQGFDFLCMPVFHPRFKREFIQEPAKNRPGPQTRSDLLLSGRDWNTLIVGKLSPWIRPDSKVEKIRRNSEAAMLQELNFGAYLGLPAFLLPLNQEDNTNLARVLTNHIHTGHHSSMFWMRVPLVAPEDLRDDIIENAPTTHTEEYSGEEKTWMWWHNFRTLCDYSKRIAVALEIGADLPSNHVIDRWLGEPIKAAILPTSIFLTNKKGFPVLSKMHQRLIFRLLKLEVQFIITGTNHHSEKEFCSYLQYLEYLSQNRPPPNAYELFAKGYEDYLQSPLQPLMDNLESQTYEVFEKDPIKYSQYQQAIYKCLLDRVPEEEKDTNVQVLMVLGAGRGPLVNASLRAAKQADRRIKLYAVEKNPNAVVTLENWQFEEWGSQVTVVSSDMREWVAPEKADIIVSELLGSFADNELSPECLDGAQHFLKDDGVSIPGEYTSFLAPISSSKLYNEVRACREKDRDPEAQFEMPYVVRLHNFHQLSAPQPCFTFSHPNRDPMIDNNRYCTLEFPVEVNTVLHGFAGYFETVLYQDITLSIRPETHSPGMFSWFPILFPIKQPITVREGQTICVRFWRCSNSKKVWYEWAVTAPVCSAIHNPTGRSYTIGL
T1 sequence (Q9BQA1 whole entry partner): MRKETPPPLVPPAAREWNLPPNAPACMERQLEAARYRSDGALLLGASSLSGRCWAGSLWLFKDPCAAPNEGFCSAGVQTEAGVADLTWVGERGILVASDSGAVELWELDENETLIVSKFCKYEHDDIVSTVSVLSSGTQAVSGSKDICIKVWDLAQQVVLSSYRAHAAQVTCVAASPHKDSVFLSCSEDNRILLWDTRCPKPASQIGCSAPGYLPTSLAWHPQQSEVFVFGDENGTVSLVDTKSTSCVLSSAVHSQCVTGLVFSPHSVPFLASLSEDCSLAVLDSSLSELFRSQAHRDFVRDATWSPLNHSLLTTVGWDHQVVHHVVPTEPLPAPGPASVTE
The 6 μL assay reactions are run in Greiner brand black 384-well low volume plates. All reactions contained assay buffer (phosphate buffered saline, 0.01% (v/v) Tween-20, 0.01% (w/v) albumin from chicken egg white, 1 mM dithiothreitol, 200 nM peptide substrate, 1 μM S-Adenosyl methionine, and 15 ng/reaction enzyme, with the enzyme being omitted from negative control reactions. Compounds were added in a volume of 100 nL from dilution series prepared in DMSO, positive and negative control reactions receiving the same volume DMSO without compound. The plates were sealed with adhesive seals and incubated for 4 hours at 37° C. Reaction progress was measured using the Transcreener™ EPIGEN methyltransferase assay (BellBrook Labs, Madison, Wis.) as recommended by the manufacturer. To each reaction 2 μL detection mix were added, containing coupling enzymes, fluorescence polarisation tracer, and AMP antibody. Plates were incubated for 90 min before being read on a PerkinElmer EnVision™ plate reader in fluorescence polarisation mode.
(In fluorescence polarisation assays a small probe gives low polarisation when free and higher when bound to something large.)
Regarding `O=C(NCC(O)CNC1Cc2ccccc2C1)c1ccc(Cl)cc1` (stereo not shown) [Compound 1, 4-Chloro-N-(3-((2,3-dihydro-1H-inden-2-yl)amino)-2-hydroxypropyl)benzamide], it took 792 nM to reach half-maximal inhibition (IC50).

`Cc1nc(-c2ccc(C(F)(F)F)cc2)sc1C(=O)NC[C@H](O)CNC1Cc2ccccc2C1` [Compound 3, (R)—N-(3-((2,3-Dihydro-1H-inden-2-yl)amino)-2-hydroxypropyl)-4-methyl-2-(4-(trifluoromethyl)phenyl)thiazole-5-carboxamide]: the IC50 turned out to be 309 nM.

`O=C(NC[C@H](O)CNC1Cc2ccccc2C1)c1cnn(-c2ccccc2)c1` [Compound 4, (R)-N-(3-((2,3-Dihydro-1H-inden-2-yl)amino)-2-hydroxypropyl)-1-phenyl-1H-pyrazole-4-carboxamide] returned an IC50 of 3790 nM.

In the case of `Cc1nn(C)cc1-c1cc(C(=O)NC[C@H](O)CNC2Cc3ccccc3C2)no1` [Compound 5, (R)-N-(3-((2,3-Dihydro-1H-inden-2-yl)amino)-2-hydroxypropyl)-5-(1,3-dimethyl-1H-pyrazol-4-yl)isoxazole-3-carboxamide], the IC50 was 9780 nM.

For `COc1ccc(-c2cc(C(=O)NC[C@H](O)CNC3Cc4ccccc4C3)no2)cc1` [Compound 6, (R)-N-(3-((2,3-Dihydro-1H-inden-2-yl)amino)-2-hydroxypropyl)-5-(4-methoxyphenyl)isoxazole-3-carboxamide], the IC50 came to 1550 nM.

`O=C(NC[C@H](O)CNC1Cc2ccccc2C1)c1cnn(-c2ccc(F)cc2)c1` [Compound 9, (R)-N-(3-((2,3-Dihydro-1H-inden-2-yl)amino)-2-hydroxypropyl)-1-(4-fluorophenyl)-1H-pyrazole-4-carboxamide]: the IC50 worked out at 3720 nM.

Regarding `O=C(NC[C@H](O)CNC1Cc2ccccc2C1)c1cnn(-c2cccc(Cl)c2)c1` [Compound 10, (R)-1-(3-Chlorophenyl)-N-(3-((2,3-dihydro-1H-inden-2-yl)amino)-2-hydroxypropyl)-1H-pyrazole-4-carboxamide], the midpoint of inhibition, the IC50, lay at 1440 nM.

Compound `O=C(NC[C@H](O)CNC1Cc2ccccc2C1)c1ccc(N2CCOCC2)nc1` [Compound 11, (R)-N-(3-((2,3-Dihydro-1H-inden-2-yl)amino)-2-hydroxypropyl)-6-morpholinonicotinamide] returned an IC50 of 830 nM.

With `Cc1nnc(-c2ccc(C(=O)NC[C@H](O)CNC3Cc4ccccc4C3)cc2)o1` [Compound 12, (R)-N-(3-((2,3-Dihydro-1H-inden-2-yl)amino)-2-hydroxypropyl)-4-(5-methyl-1,3,4-oxadiazol-2-yl)benzamide], inhibition was half-maximal at 695 nM (IC50).

For the compound `Cc1nnc(-c2ccc(C(=O)NC[C@@H](O)CNC3Cc4ccccc4C3)cc2)o1` [Compound 17, (S)-N-(3-((2,3-Dihydro-1H-inden-2-yl)amino)-2-hydroxypropyl)-4-(5-methyl-1,3,4-oxadiazol-2-yl)benzamide], half-maximal inhibition (IC50) was put at 629 nM.

With `O=C(NCC(O)CNC1Cc2ccccc2C1)c1ccc(C(=O)N2CCC2)cc1` (stereo not shown) [Compound 20, 4-(Azetidine-1-carbonyl)-N-(3-((2,3-dihydro-1H-inden-2-yl)amino)-2-hydroxypropyl)benzamide], inhibition was half-maximal at 977 nM (IC50).

As for `O=C(NCC(O)CNC1Cc2ccccc2C1)c1ccc(C(=O)N2CCCC2)cc1` (stereo not shown) [Compound 21, N-(3-((2,3-Dihydro-1H-inden-2-yl)amino)-2-hydroxypropyl)-4-(pyrrolidine-1-carbonyl)benzamide], half-maximal inhibition (IC50) required 1110 nM.

Compound `O=C(NCC(O)CNC1Cc2ccccc2C1)c1cccc(-c2ccccc2)c1` (stereo not shown) [Compound 25, N-(3-((2,3-Dihydro-1H-inden-2-yl)amino)-2-hydroxypropyl)[1,1′-biphenyl]-3-carboxamide] gave an IC50 of 2220 nM.

`O=C(NCC(O)CNC1Cc2ccccc2C1)c1ccccc1-c1ccccc1` (stereo not shown) [Compound 26, N-(3-((2,3-Dihydro-1H-inden-2-yl)amino)-2-hydroxypropyl)-[1,1′-biphenyl]-2-carboxamide] returned an IC50 of 3870 nM.

For the compound `O=C(NCC(O)CNC1Cc2ccccc2C1)c1ccc(C(=O)N2CCOCC2)cc1F` (stereo not shown) [Compound 27, N-(3-((2,3-Dihydro-1H-inden-2-yl)amino)-2-hydroxypropyl)-2-fluoro-4-(morpholine-4-carbonyl)benzamide], the IC50 was 434 nM.

`O=C(NCC(O)CNC1Cc2ccc(Br)cc2C1)c1ccc(Cl)cc1` (stereo not shown) [Compound 28, N-(3-((5-Bromo-2,3-dihydro-1H-inden-2-yl)amino)-2-hydroxypropyl)-4-chlorobenzamide]: half-maximal inhibition (IC50) required 69400 nM.

The compound `O=C(NCCC(O)CNC1Cc2ccccc2C1)c1ccc(Cl)cc1` (stereo not shown) [Compound 29, 4-Chloro-N-(4-((2,3-dihydro-1H-inden-2-yl)amino)-3-hydroxybutyl)benzamide] gave an IC50 of 4430 nM.

`O=C(NCC(O)CNC1CCc2ccc(F)cc2C1)c1ccc(Cl)cc1` (stereo not shown) [Compound 31, 4-Chloro-N-(3-((7-fluoro-1,2,3,4-tetrahydronaphthalen-2-yl)amino)-2-hydroxypropyl)benzamide] yielded an IC50 of 22600 nM.

Compound `O=C(NCC(O)CNC1CCc2cc(F)ccc2C1)c1ccc(Cl)cc1` (stereo not shown) [Compound 32, 4-Chloro-N-(3-((6-fluoro-1,2,3,4-tetrahydronaphthalen-2-yl)amino)-2-hydroxypropyl)benzamide] showed an IC50 of 18800 nM.

In turn, `CN(CC(O)CNC(=O)c1ccc(Cl)cc1)C1CCc2ccccc2C1` (stereo not shown) [Compound 33, 4-Chloro-N-(2-hydroxy-3-(methyl(1,2,3,4-tetrahydronaphthalen-2-yl)amino)propyl) benzamide] came in with an IC50 of 24900 nM.

As to `O=C(NCC(O)CNC1Cc2ccccc21)c1ccc(Cl)cc1` (stereo not shown) [Compound 34, N-(3-(Bicyclo[4.2.0]octa-1(6),2,4-trien-7-ylamino)-2-hydroxypropyl)-4-chlorobenzamide], the IC50 stood at 41100 nM.

For `O=C(NCC(O)CNC1Cc2ccccc2C1)c1ccc(C(=O)N2CC3CCC(C2)O3)cc1` (stereo not shown) [Compound 39, 4-(8-Oxa-3-azabicyclo[3.2.1]octane-3-carbonyl)-N-(3-((2,3-dihydro-1H-inden-2-yl)amino)-2-hydroxypropyl)benzamide], the midpoint of inhibition, the IC50, lay at 120 nM.

`CC1(C)CN(C(=O)c2ccc(C(=O)NCC(O)CNC3Cc4ccccc4C3)cc2)CCO1` (stereo not shown) [Compound 41, N-(3-((2,3-Dihydro-1H-inden-2-yl)amino)-2-hydroxypropyl)-4-(2,2-dimethylmorpholine-4-carbonyl)benzamide] yielded an IC50 of 157 nM.

The next assay deals with T1, Full-length PRMT5 enzyme co-expressed with MEP50. Put plainly: Revised PRMT5 Biochemical Assay. As to conditions: 1 μM histone H4 derived peptide substrate, 1 μM S-Adenosyl methionine, 4 hours at 37 degree Celsius, Transcreener EPIGEN fluorescence polarisation. The method, boiled down:
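Full-length human PRMT5 co-expressed with His-MEP50 in insect cells (15 ng/reaction), 1 μM H4-derived peptide and 1 μM SAM in PBS/0.01% Tween-20/egg albumin/1 mM DTT, 4 h at 37 °C. SAH formation read by Transcreener EPIGEN fluorescence polarisation after 90 min detection. IC50 from four-parameter fit of plate-normalised % inhibition.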
Compound `O=C(NC[C@@H](O)CNC1Cc2ccccc2C1)c1cccc2cn[nH]c12` [Compound 132, (S)-N-(3-((2,3-dihydro-1H-inden-2-yl)amino)-2-hydroxypropyl)-1H-indazole-7-carboxamide] had an IC50 of 29700 nM.

Regarding `COc1cc(C(=O)N2C3CCC2COC3)ccc1C(=O)NC[C@@H](O)CNC1Cc2ccccc2C1` [Compound 134, 4-(3-Oxa-8-azabicyclo[3.2.1]octane-8-carbonyl)-N-((S)-3-((2,3-dihydro-1H-inden-2-yl)amino)-2-hydroxypropyl)-2-methoxybenzamide hydrochloride], half-maximal inhibition (IC50) required 238 nM.

In turn, `O=C(NC[C@@H](O)CNC1Cc2ccccc2C1)c1ccc(C(=O)N2[C@@H]3CCC[C@H]2COC3)cc1` [Compound 136, 4-((1R,5S)-3-Oxa-9-azabicyclo[3.3.1]nonane-9-carbonyl)-N—((S)-3-((2,3-dihydro-1H-inden-2-yl)amino)-2-hydroxypropyl)benzamide] came in with an IC50 of 50 nM.

For `O=C(NC[C@@H](O)CNC1Cc2ccccc2C1)c1ccccc1C(F)F` [Compound 137, (S)-2-(difluoromethyl)-N-(3-((2,3-dihydro-1H-inden-2-yl)amino)-2-hydroxypropyl)benzamide], the midpoint of inhibition, the IC50, lay at 47000 nM.

Regarding `O=C(NC[C@@H](O)CNC1Cc2ccccc2C1)c1cccc(C(F)F)c1` [Compound 138, (S)-3-(difluoromethyl)-N-(3-((2,3-dihydro-1H-inden-2-yl)amino)-2-hydroxypropyl)benzamide], half-maximal inhibition (IC50) required 16900 nM.

Turning to `CC(=O)N1CC2CCC(C1)C2Nc1cccc(C(=O)NC[C@@H](O)CNC2Cc3ccccc3C2)c1` (stereo partly drawn) [Compound 139, 3-((3-Acetyl-3-azabicyclo[3.2.1]octan-8-yl)amino)-N—((S)-3-((2,3-dihydro-1H-inden-2-yl)amino)-2-hydroxypropyl)benzamide], 771 nM corresponded to half-maximal inhibition (IC50).

The compound `CS(=O)(=O)Nc1cccc(C(=O)NC[C@@H](O)CNC2Cc3ccccc3C2)c1` [Compound 140, (S)—N-(3-((2,3-Dihydro-1H-inden-2-yl)amino)-2-hydroxypropyl)-3-(methylsulfonamido) benzamide] returned an IC50 of 4680 nM.

`CCOc1cc(C(=O)N2C3CCC2COC3)c(F)cc1C(=O)NC[C@@H](O)CNC1Cc2ccccc2C1` [Compound 141, 4-(3-oxa-8-azabicyclo[3.2.1]octane-8-carbonyl)-N—((S)-3-((2,3-dihydro-1H-inden-2-yl)amino)-2-hydroxypropyl)-2-ethoxy-5-fluorobenzamide] showed a half-maximal inhibitory concentration (IC50) of 695 nM.

Usually IC50 stands for the concentration at which inhibition is half-maximal. A high value points to lower potency.
